Results taken from patent US20230365546A1, “5-SUBSTITUTED INDOLE 3-AMIDE DERIVATIVES, PREPARATION METHOD AND USE THEREOF” (ORIGIANT PHARMACEUTICAL CO., LTD, priority 2020, published 2023).

How the values were obtained:
HT-29 cells = assay: Protection against programmed necrosis of HT-29 cells (TNF α/Smac mimetic/Z-VAD-FMK, CCK8); assay type: cell-based; conditions: Homo sapiens, TNF α/Smac mimetic/Z-VAD-FMK induced 24 h, CCK8, read-out: HT-29 (EC50)
Procedure: In vitro protection against programmed necrosis of HT-29 cells was conducted by ourselves.
DMEM medium was purchased from Gibco Inc., penicillin and streptomycin were purchased from HyClone Inc., TNF α was purchased from PeproTech Inc., Smac mimetic and Z-VAD-FMK were purchased from Selleck Inc., CCK8 was purchased from Medchem Express Inc.
HT-29 cells (colon cancer cells) were cultured in DMEM+10% FBS+Penicillin/Streptomycin medium. During the experiments, HT-29 cells in logarithmic growth phase were harvested, seeded in a 96-well plate at specific numbers per well (typically 8×10^3 cells/well of adherent cells) and cultured overnight in a 37° C., 5% CO2 cell culture incubator. The next day, the compounds to be tested were diluted with culture medium to the corresponding concentrations and added into the corresponding wells of a 96-well plate, with 3 replicate wells for each sample, and a Vehicle control group and a blank Control group containing only culture medium were set at the same time. […] The absorbance was measured at 495 nm wavelength using a microplate reader, and the protection rate of the drug on the cells necrosis was calculated according to the following formula:
Protection rate of cell necrosis=[(X−C0)/(C−C0)]×100%
Wherein, C, C0, and X represent the mean absorbance values of the Vehicle control group, Blank control group and Drug treatment group, respectively.

RIPK1 = RIPK1 (Homo sapiens (Human), UniProt Q13546); assay: In vitro kinase assay (Eurofins Kinase Profiler), IC50; assay type: biochemical; conditions: 0.001-10 μM, read-out: RIPK 1 (IC50)
RIPK1, sequence (Q13546 whole entry): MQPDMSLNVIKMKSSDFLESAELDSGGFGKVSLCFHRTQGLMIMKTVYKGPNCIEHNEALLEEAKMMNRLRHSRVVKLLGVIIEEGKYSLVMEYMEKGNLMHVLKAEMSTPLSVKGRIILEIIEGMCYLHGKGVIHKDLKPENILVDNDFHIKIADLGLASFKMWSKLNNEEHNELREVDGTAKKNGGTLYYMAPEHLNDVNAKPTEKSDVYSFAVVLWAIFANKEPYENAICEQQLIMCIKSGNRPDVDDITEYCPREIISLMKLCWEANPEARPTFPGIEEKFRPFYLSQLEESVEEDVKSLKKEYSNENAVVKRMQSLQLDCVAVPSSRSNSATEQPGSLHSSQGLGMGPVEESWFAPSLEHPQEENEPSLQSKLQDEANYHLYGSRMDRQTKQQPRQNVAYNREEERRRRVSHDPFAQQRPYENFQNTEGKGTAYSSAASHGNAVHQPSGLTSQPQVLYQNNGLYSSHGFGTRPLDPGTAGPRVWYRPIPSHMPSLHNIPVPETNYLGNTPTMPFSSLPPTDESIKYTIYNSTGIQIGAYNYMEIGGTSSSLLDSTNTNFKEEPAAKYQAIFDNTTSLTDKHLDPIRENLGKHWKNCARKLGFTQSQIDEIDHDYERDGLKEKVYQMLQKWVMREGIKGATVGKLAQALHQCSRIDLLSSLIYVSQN

SMILES | EC50 (HT-29 cells) | IC50 (RIPK1)
COc1ccc(CNC(=O)c2c[nH]c3ccc(-c4ccc5nc(NC(=O)C6CC6)sc5c4)cc23)cc1 [Compound 1] | 10 to 100 nM | 10 to 100 nM
O=C(NCc1ccc(F)c(F)c1)c1c[nH]c2ccc(-c3ccc4nc(NC(=O)C5CC5)sc4c3)cc12 [Compound 2] | 100 to 1000 nM | 10 to 100 nM
O=C(NCc1cc(F)cc(F)c1)c1c[nH]c2ccc(-c3ccc4nc(NC(=O)C5CC5)sc4c3)cc12 [Compound 3] | 10 to 100 nM | 10 to 100 nM
O=C(NCc1cccc(F)c1)c1c[nH]c2ccc(-c3ccc4nc(NC(=O)C5CC5)sc4c3)cc12 [Compound 4] | 10 to 100 nM | 10 to 100 nM
O=C(NCc1cc(C(F)(F)F)cc(C(F)(F)F)c1)c1c[nH]c2ccc(-c3ccc4nc(NC(=O)C5CC5)sc4c3)cc12 [Compound 5] | ≥ 1000 nM | 100 to 1000 nM
O=C(NCc1ccc(F)cc1)c1c[nH]c2ccc(-c3ccc4nc(NC(=O)C5CC5)sc4c3)cc12 [Compound 6] | 10 to 100 nM | 100 to 1000 nM
N#Cc1ccc(CNC(=O)c2c[nH]c3ccc(-c4ccc5nc(NC(=O)C6CC6)sc5c4)cc23)cc1 [Compound 7] | 10 to 100 nM | 10 to 100 nM
O=C(NCc1cccc(C(F)(F)F)c1)c1c[nH]c2ccc(-c3ccc4nc(NC(=O)C5CC5)sc4c3)cc12 [Compound 8] | 1 to 10 nM | 10 to 100 nM
O=C(NCc1ccc(F)cc1F)c1c[nH]c2ccc(-c3ccc4nc(NC(=O)C5CC5)sc4c3)cc12 [Compound 9] | 1 to 10 nM | 10 to 100 nM
O=C(NCc1cccc([N+](=O)[O-])c1)c1c[nH]c2ccc(-c3ccc4nc(NC(=O)C5CC5)sc4c3)cc12 [Compound 10] | 100 to 1000 nM | 100 to 1000 nM
COc1cc(CNC(=O)c2c[nH]c3ccc(-c4ccc5nc(NC(=O)C6CC6)sc5c4)cc23)cc(OC)c1 [Compound 11] | ≥ 1000 nM | 100 to 1000 nM
COc1cccc(CNC(=O)c2c[nH]c3ccc(-c4ccc5nc(NC(=O)C6CC6)sc5c4)cc23)c1 [Compound 12] | ≥ 1000 nM | 100 to 1000 nM
Cc1ccc(CNC(=O)c2c[nH]c3ccc(-c4ccc5nc(NC(=O)C6CC6)sc5c4)cc23)cc1 [Compound 13] | 1 to 10 nM | 10 to 100 nM
O=C(NCc1cccc2ccccc12)c1c[nH]c2ccc(-c3ccc4nc(NC(=O)C5CC5)sc4c3)cc12 [Compound 14] | ≥ 1000 nM | ≥ 1000 nM
Cc1cccc(CNC(=O)c2c[nH]c3ccc(-c4ccc5nc(NC(=O)C6CC6)sc5c4)cc23)c1 [Compound 15] | 10 to 100 nM | 10 to 100 nM
O=C(NCc1ccc(C(F)(F)F)cc1)c1c[nH]c2ccc(-c3ccc4nc(NC(=O)C5CC5)sc4c3)cc12 [Compound 16] | 10 to 100 nM | 10 to 100 nM
O=C(NCc1ccco1)c1c[nH]c2ccc(-c3ccc4nc(NC(=O)C5CC5)sc4c3)cc12 [Compound 17] | 10 to 100 nM | 10 to 100 nM
O=C(NCc1cccs1)c1c[nH]c2ccc(-c3ccc4nc(NC(=O)C5CC5)sc4c3)cc12 [Compound 18] | 1 to 10 nM | 10 to 100 nM
O=C(NCc1cccc(OC(F)(F)F)c1)c1c[nH]c2ccc(-c3ccc4nc(NC(=O)C5CC5)sc4c3)cc12 [Compound 19] | 1 to 10 nM | 10 to 100 nM
O=C(NCc1ccncc1)c1c[nH]c2ccc(-c3ccc4nc(NC(=O)C5CC5)sc4c3)cc12 [Compound 20] | ≥ 1000 nM | ≥ 1000 nM
O=C(NCc1ccccc1F)c1c[nH]c2ccc(-c3ccc4nc(NC(=O)C5CC5)sc4c3)cc12 [Compound 21] | 1 to 10 nM | 10 to 100 nM
O=C(NCc1cccc(Cl)c1)c1c[nH]c2ccc(-c3ccc4nc(NC(=O)C5CC5)sc4c3)cc12 [Compound 22] | 1 to 10 nM | 10 to 100 nM
O=C(NCc1cccc(Br)c1)c1c[nH]c2ccc(-c3ccc4nc(NC(=O)C5CC5)sc4c3)cc12 [Compound 23] | 1 to 10 nM | 100 to 1000 nM
O=C(NCc1ccccc1C(F)(F)F)c1c[nH]c2ccc(-c3ccc4nc(NC(=O)C5CC5)sc4c3)cc12 [Compound 24] | 10 to 100 nM | 100 to 1000 nM

SMILES | EC50 (HT-29 cells) | IC50 (RIPK1)
O=C(NCc1cc(F)ccc1F)c1c[nH]c2ccc(-c3ccc4nc(NC(=O)C5CC5)sc4c3)cc12 [Compound 25] | < 1 nM | 10 to 100 nM
COc1ccc(CNC(=O)c2c[nH]c3ccc(-c4ccc5nc(NC(=O)C6CC6)sc5c4)cc23)cc1OC [Compound 26] | ≥ 1000 nM | 100 to 1000 nM
O=C(NCc1ccccc1)c1c[nH]c2ccc(-c3ccc4nc(NC(=O)C5CC5)sc4c3)cc12 [Compound 27] | 10 to 100 nM | 
CC(C)c1ccc(CNC(=O)c2c[nH]c3ccc(-c4ccc5nc(NC(=O)C6CC6)sc5c4)cc23)cc1 [Compound 28] | ≥ 1000 nM | 100 to 1000 nM
CC(C)(C)c1ccc(CNC(=O)c2c[nH]c3ccc(-c4ccc5nc(NC(=O)C6CC6)sc5c4)cc23)cc1 [Compound 29] | 100 to 1000 nM | 100 to 1000 nM
C[C@H](NC(=O)c1c[nH]c2ccc(-c3ccc4nc(NC(=O)C5CC5)sc4c3)cc12)c1ccc(F)cc1 [Compound 30] | < 1 nM | 10 to 100 nM
C[C@@H](NC(=O)c1c[nH]c2ccc(-c3ccc4nc(NC(=O)C5CC5)sc4c3)cc12)c1ccc(F)cc1 [Compound 31] | 100 to 1000 nM | 100 to 1000 nM
COc1ccc([C@@H](C)NC(=O)c2c[nH]c3ccc(-c4ccc5nc(NC(=O)C6CC6)sc5c4)cc23)cc1 [Compound 32] | 1 to 10 nM | 10 to 100 nM
COc1ccc([C@H](C)NC(=O)c2c[nH]c3ccc(-c4ccc5nc(NC(=O)C6CC6)sc5c4)cc23)cc1 [Compound 33] | < 1 nM | 10 to 100 nM
C[C@@H](NC(=O)c1c[nH]c2ccc(-c3ccc4nc(NC(=O)C5CC5)sc4c3)cc12)c1cccc(F)c1 [Compound 35] | 10 to 100 nM | 100 to 1000 nM
C[C@@H](NC(=O)c1c[nH]c2ccc(-c3ccc4nc(NC(=O)C5CC5)sc4c3)cc12)c1cccc(Cl)c1 [Compound 36] | 100 to 1000 nM | 100 to 1000 nM
C[C@H](NC(=O)c1c[nH]c2ccc(-c3ccc4nc(NC(=O)C5CC5)sc4c3)cc12)c1cccc(Cl)c1 [Compound 37] | 1 to 10 nM | 10 to 100 nM
COc1cccc([C@H](C)NC(=O)c2c[nH]c3ccc(-c4ccc5nc(NC(=O)C6CC6)sc5c4)cc23)c1 [Compound 38] | 1 to 10 nM | 10 to 100 nM
COc1cccc([C@@H](C)NC(=O)c2c[nH]c3ccc(-c4ccc5nc(NC(=O)C6CC6)sc5c4)cc23)c1 [Compound 39] | 10 to 100 nM | 100 to 1000 nM
C[C@H](NC(=O)c1c[nH]c2ccc(-c3ccc4sc(NC(=O)C5CC5)nc4c3)cc12)c1cccc(F)c1 [Compound 40] | 10 to 100 nM | 100 to 1000 nM
C[C@H](NC(=O)c1c[nH]c2ccc(-c3ccc(NC(=O)C4CC4)nc3)cc12)c1cccc(F)c1 [Compound 41] | 100 to 1000 nM | 100 to 1000 nM
C[C@H](NC(=O)c1c[nH]c2ccc(-c3ccc(NC(=O)C4CC4)cc3)cc12)c1cccc(F)c1 [Compound 42] | ≥ 1000 nM | 100 to 1000 nM
C[C@H](NC(=O)c1c[nH]c2ccc(-c3cnc(NC(=O)C4CC4)nc3)cc12)c1cccc(F)c1 [Compound 43] | ≥ 1000 nM | ≥ 1000 nM
C[C@H](NC(=O)c1c[nH]c2ccc(-c3ccc4nc(NC(=O)C5CC5)ncc4c3)cc12)c1cccc(F)c1 [Compound 44] | 10 to 100 nM | 100 to 1000 nM
C[C@H](NC(=O)c1c[nH]c2ccc(-c3ccc4nc(NC(=O)C5CC5)nn4c3)cc12)c1cccc(F)c1 [Compound 45] | 10 to 100 nM | 10 to 100 nM
C[C@H](NC(=O)c1c[nH]c2ccc(-c3ccc4nc(NC(=O)C5CCC5)sc4c3)cc12)c1cccc(F)c1 [Compound 47] | 1 to 10 nM | 10 to 100 nM
C[C@H](NC(=O)c1cn(C)c2ccc(-c3ccc4nc(NC(=O)C5CC5)nn4c3)cc12)c1cccc(F)c1 [Compound 90] |  | 100 to 1000 nM
C[C@H](NC(=O)c1cn(C)c2ccc(-c3ccc4c(NC(=O)C5CC5)n[nH]c4c3)cc12)c1cccc(F)c1 [Compound 110] |  | < 1 nM
